{"source": "patent US20190091180A1", "about": "“DOSAGE REGIMEN FOR A S1P RECEPTOR AGONIST” (Novartis AG, priority 2008, published 2019)", "key": {"multiple sclerosis": {"test_system": "multiple sclerosis", "settings": "humans; cited from earlier work"}, "healthy subjects [1]": {"test_system": "healthy subjects", "settings": "administration of 1.25 mg of FTY720; cited from earlier work"}, "healthy subjects [2]": {"test_system": "healthy subjects", "test": "Double-blind, placebo-controlled dose titration clinical study; heart rate by continuous telemetry", "type": "in vivo, human", "description": "A single-center, double-blind, placebo-controlled, dose titration, once-daily, multiple-oral-dose clinical study in healthy subjects was conducted to evaluate the effect of a dosage regimen of FTY720 according to the present invention. A total of 36 subjects were randomly assigned to one of the three groups. Each subject participated in a screening period of maximal 21 days, a baseline period (Day −1), a 9-day dose-administration period, and clinical study completion assessments on Day 10. Subjects were assigned to one of the three groups (dose titration regimen group, placebo control group, or active control group) and received the once daily dose in a double-blinded manner (Table 1). In the dose titration group, increasing once daily doses of Compound A (FTY720), starting at 0.125 mg o.d. and ending at the maximal therapeutic dose of 1.25 mg o.d. were administered on days 1 to 9 of the study according to the schedule shown in Table 1 below. The placebo control group received placebo through out the duration of the study and the active control group received a once daily dose of 1.25 mg of FTY720 on days 1 to 9. [table] Pharmacodynamic and safety assessments are performed up to 24 hours post last dose. Heart rate is monitored via telemetry on Day −1 through Day 10, 24 hour after the last dosing. Heart rhythm is assessed via 24 hr continuous holter monitoring on Day −1, Day 1, and Day 9. For each dosing for each subject, the drug is administered as closely as practically possible to the time administered on Day −1. Safety assessments includes physical examinations, vital signs and body measurements, 12-lead ECG evaluations, standard clinical laboratory evaluations hematology, blood chemistry, urinalysis, adverse event and serious adverse event monitoring. Systolic and diastolic blood pressure and pulse are measured after the subject has rested quietly in the sitting position for at least 3 minutes. Blood pressure is measured at the same arm on each occasion. Standard 12-lead ECGs are recorded at Screening, baseline, 4 hours post-dose on Day 1 and Day 8, and at Study Completion. The variables recorded are: date and time of ECG, heart rate, PR interval, QT interval (uncorrected), QTcB, QRS duration. The overall interpretation is collected with a Yes/No statement to confirm if any clinically relevant abnormalities are present, which needs to be specified further. Subjects remain on continuous telemetry, starting before breakfast on Day −1 and proceeding throughout the administration period up to Day 10 (24 hour after the last dose). Over this ten day duration of continuous heart rate collection for each subject, one heart rate value is obtained every minute (‘minute unit heart rate’), representing the average heart rate value over that minute. The heart rate database for each subject contains approximately 14,400 data points (10 days×24 hr×60 min). 24-hour continuous Holter-ECG data are captured via a digital Holter monitor (12-lead, on Days −1, 1, 6, and 8), and transferred for interpretation and reporting. Holter monitoring starts approximately at 7:00 and the time of dose administration is regarded as the time “0 hours”. Holter “cuts” are derived from the dataset at 1 hour intervals starting from Day −1 and continuing for 24 hours or the end of the cleaned Holter monitoring dataset. Cardiac conduction intervals: arrhythmia monitoring includes the frequency and duration of sinus pauses (>2 sec and >3 sec) and atrio-ventricular blocks. Frequency and duration of atrial and ventricular ectopy and sinus rhythm are also recorded. The daily chronotropic effect is defined as the percent decrease in HRmin (minimum heart rate) between two consecutive days. It is calculated on days 1 to 9."}}}
{"smiles": "CCCCCCCCc1ccc(CCC(N)(CO)CO)cc1.Cl", "note": "[FTY720, 2-amino-2-[2-(4-octylphenyl)ethyl]propane-1,3-diol]", "values": [{"measurement": "efficacy in the treatment of multiple sclerosis", "setting": "multiple sclerosis", "result": "has been demonstrated in humans"}, {"measurement": "decrease in heart rate", "setting": "healthy subjects [1]", "result": "approximately 8 beats/min (BPM)"}, {"measurement": "additional decrease in daily average heart rate from Day 1 to Day 2", "setting": "healthy subjects [2]; active control group, 1.25 mg once daily, Day 1 to Day 2", "result": "approximately 3 BPM"}, {"measurement": "decrease in daily average heart rate from Day -1 to Day 1", "setting": "healthy subjects [2]; active control group, 1.25 mg once daily, Day -1 to Day 1", "result": "approximately 8 BPM"}, {"measurement": "gradual decrease in daily average heart rate per day", "setting": "healthy subjects [2]; dose titration group 0.125/0.25/0.5/1.25 mg o.d., over the eight day course of the titration", "result": "1-2 BPM per day"}, {"measurement": "heart rate on initiation of 1.25 mg on Day 8 compared to the preceding days", "setting": "healthy subjects [2]; dose titration group, Day 8, first 1.25 mg dose", "result": "does not result in dip in heart rate"}, {"measurement": "daily minimum heart rates during the course of the study", "setting": "healthy subjects [2]; dose titration regimen compared with 1.25 mg once daily group", "result": "improved daily minimum heart rates"}, {"measurement": "negative chronotropic effect on Day 1 of treatment initiation", "setting": "healthy subjects [2]; dose titration regimen versus 1.25 mg from Day 1", "result": "attenuates the negative chronotropic effect"}]}
